Source: US8791266B2, “Thyroid hormone β receptor agonist” (Mitsubishi Tanabe Pharma Corporation, priority 2009, dated 2014)

Columns and labels:
[1] = target: T1, Human Thyroid Hormone Receptor β1 (TRβ1) (Homo sapiens, UniProt P10828); assay: Transcription activation test of human thyroid hormone receptor β1 (luciferase reporter in 293T cells); format: cell-based; conditions: EC50 of transcription activation on TRβ1, 293T cells, luciferase activity after 24 hr; read-out: TRβ
T1 construct: expressed in transfected cells; host or cells: 293T cells
T1 sequence (P10828 1-461): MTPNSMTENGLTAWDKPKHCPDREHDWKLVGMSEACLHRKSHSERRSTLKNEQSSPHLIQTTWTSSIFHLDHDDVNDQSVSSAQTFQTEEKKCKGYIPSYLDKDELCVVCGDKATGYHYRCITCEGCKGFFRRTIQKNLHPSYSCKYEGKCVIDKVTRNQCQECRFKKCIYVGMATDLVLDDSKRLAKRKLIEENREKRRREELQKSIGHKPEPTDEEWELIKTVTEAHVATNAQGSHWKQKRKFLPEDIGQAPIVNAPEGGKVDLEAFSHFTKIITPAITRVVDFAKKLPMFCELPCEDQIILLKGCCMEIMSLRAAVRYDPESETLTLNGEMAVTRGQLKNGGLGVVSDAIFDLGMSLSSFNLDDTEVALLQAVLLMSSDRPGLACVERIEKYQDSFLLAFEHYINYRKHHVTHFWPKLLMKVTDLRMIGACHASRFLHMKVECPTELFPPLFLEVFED
Text: (§1) Transcription Activation Test of Human Thyroid Hormone Receptors α1 (TRα1) and β1 (TRβ1)
(§2) pcDNA3.1 vector (manufactured by Invitrogen) that expresses TRα1 or β1 cloned from human liver-derived cells, and firefly luciferase expression vector pDR4-LuC (manufactured by Stratagene) having a thyroid hormone response sequence to be a reporter were transfected into 293T cells cultured in Dulbecco's modified Eagle medium (DMEM) containing 10% of activated carbon/dextran-treated fetal bovine serum (FBS) by using Lipofectamine2000 (manufactured by Invitrogen). After 16 hr, the cells were plated again in a 96 well plate, and the medium was exchanged with DMEM containing 0.1% activated carbon/dextran-treated FBS. After 3 more hr, a compound diluted with dimethyl sulfoxide solution was added, and the luciferase activity after 24 hr was measured.
(§3) As a positive control, 3,3′,5-triiodo-L-thyronine (T3), which is a biological ligand, was used. The transcription activation action of the compound on TRα1 and TRβ1 was shown by each EC50 value and the maximum luciferase activity value relative to the maximum luciferase activity value of T3 as 100.

[2] = target: T2, Human Thyroid Hormone Receptor α1 (TRα1) (Homo sapiens, UniProt P10827); assay: Transcription activation test of human thyroid hormone receptor α1 (luciferase reporter in 293T cells); format: cell-based; conditions: ratio TRα/TRβ of the transcription activation EC50 values
T2 construct: expressed in transfected cells; host or cells: 293T cells
T2 sequence (P10827 1-410 isoform P10827-2): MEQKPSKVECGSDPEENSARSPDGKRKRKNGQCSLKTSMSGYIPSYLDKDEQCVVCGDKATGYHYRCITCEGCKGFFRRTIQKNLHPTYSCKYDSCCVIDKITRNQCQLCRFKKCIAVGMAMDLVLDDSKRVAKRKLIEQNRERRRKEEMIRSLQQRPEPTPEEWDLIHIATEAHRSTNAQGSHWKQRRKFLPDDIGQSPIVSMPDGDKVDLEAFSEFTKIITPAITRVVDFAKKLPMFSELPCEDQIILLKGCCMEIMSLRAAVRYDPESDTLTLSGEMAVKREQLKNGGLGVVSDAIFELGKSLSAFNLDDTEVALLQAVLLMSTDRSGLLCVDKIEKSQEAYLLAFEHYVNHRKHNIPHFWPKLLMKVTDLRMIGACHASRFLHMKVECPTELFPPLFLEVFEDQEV
Text: as §1, §2, §3

EC50 [1]	selectivity (TRα/TRβ) [2]	Structure (SMILES)
2 nM	B (2<(TRα/TRβ)<5)	Cc1cc(OCc2noc(=O)[nH]2)c2c(c1Cc1ccc(O)c(C3CCCCC3)n1)CCO2 [Example 117, 3-[({4-[(6-cyclohexyl-5-hydroxypyridin-2-yl)methyl]-5-methyl-2,3-dihydro-1-benzofuran-7-yl}oxy)methyl]-1,2,4-oxadiazol-5(4H)-one]
80 nM	B (2<(TRα/TRβ)<5)	Cc1cc(C(=O)NCC(=O)O)cc(C)c1Cc1ccc(O)c(C2CCCCC2)n1 [Example 64, N-{4-[(6-cyclohexyl-5-hydroxypyridin-2-yl)methyl]-3,5-dimethylbenzoyl}glycine]
20 nM	B (2<(TRα/TRβ)<5)	Cc1cc(OCc2noc(=O)[nH]2)c(F)c(C)c1Cc1ccc(O)c(N2CCCCC2)n1 [Example 118, 3-({2-fluoro-4-[(5-hydroxy-6-piperidin-1-ylpyridin-2-yl)methyl]-3,5-dimethylphenoxy}methyl)-1,2,4-oxadiazol-5(4H)-one]
0.1 nM	B (2<(TRα/TRβ)<5)	Cc1cc(-c2cc(O)no2)c(C)c(C)c1Cc1ccc(O)c(C(C)C)n1 [Example 81, 6-[4-(3-hydroxyisoxazol-5-yl)-2,3,6-trimethylbenzyl]-2-isopropylpyridin-3-ol]
0.2 nM	A (5<(TRα/TRβ))	Cc1cc(OCC(=O)O)c(C)c(C)c1Cc1nc(C2CCCCC2)c(O)cc1F [Example 73, {4-[(6-cyclohexyl-3-fluoro-5-hydroxypyridin-2-yl)methyl]-2,3,5-trimethylphenoxy}acetic acid]
6 nM	A (5<(TRα/TRβ))	Cc1cc(OCc2noc(=O)[nH]2)c(F)c(C)c1Cc1ccc(O)c(-c2ccc(F)c(F)c2F)n1 [Example 191, 3-{2-fluoro-4-[5-hydroxy-6-(2,3,4-trifluoro-phenyl)-pyridin-2-ylmethyl]-3,5-dimethyl-phenoxymethyl}-1,2,4-oxadiazol-5(4H)-one]
3 nM	A (5<(TRα/TRβ))	O=C(O)COc1cc(Br)c(Cc2ccc(O)c(-c3ccccc3)n2)c(Br)c1F [Example 256, [3,5-dibromo-2-fluoro-4-(5-hydroxy-6-phenyl-pyridin-2-ylmethyl)-phenoxy]acetic acid]
10 nM	C (2>(TRα/TRβ))	COc1c(OCc2noc(=O)[nH]2)cc(C)c(Cc2ccc(O)c(C3CCCCC3)n2)c1C [Example 107, 3-({4-[(6-cyclohexyl-5-hydroxypyridin-2-yl)methyl]-2-methoxy-3,5-dimethylphenoxy}methyl)-1,2,4-oxadiazol-5(4H)-one]
1 nM	A (5<(TRα/TRβ))	Cc1cc(OCC(=O)O)c(C)c(C)c1Cc1ccc(O)c(C2CCCCCC2)n1 [Example 92, {4-[(6-cycloheptyl-5-hydroxypyridin-2-yl)methyl]-2,3,5-trimethylphenoxy}acetic acid]
10 nM	A (5<(TRα/TRβ))	Cc1cc(OCC(=O)O)c(C)c(C)c1Cc1cc(F)c(O)c(C2CCCCC2)n1 [Example 65, {4-[(6-cyclohexyl-4-fluoro-5-hydroxypyridin-2-yl)methyl]-2,3,5-trimethylphenoxy}acetic acid]

More lines, now with the values behind:

Structure (SMILES)	EC50 [1]	selectivity (TRα/TRβ) [2]
Cc1cc(OCc2noc(=O)[nH]2)c(C)c(C)c1Cc1ccc(O)c(C2CCCC2)n1 [Example 32, 3-({4-[(6-cyclopentyl-5-hydroxypyridin-2-yl)methyl]-2,3,5-trimethylphenoxy}methyl)-1,2,4-oxadiazol-5(4H)-one]	0.4 nM	B (2<(TRα/TRβ)<5)
Cc1cc(NC(=O)CC(=O)O)cc(C)c1Cc1ccc(O)c(C2CCCCCC2)n1 [Example 52, 3-({4-[(6-cycloheptyl-5-hydroxypyridin-2-yl)methyl]-3,5-dimethylphenyl}amino)-3-oxopropanoic acid]	6 nM	A (5<(TRα/TRβ))
Cc1cc(OCc2noc(=O)[nH]2)cc(C)c1Cc1ccc(O)c(-c2ccc3c(c2)CCCC3)n1 [Example 30, 3-[(4-{[5-hydroxy-6-(5,6,7,8-tetrahydronaphthalen-2-yl)pyridin-2-yl]methyl}-3,5-dimethylphenoxy)methyl]-1,2,4-oxadiazol-5(4H)-one]	2 nM	A (5<(TRα/TRβ))
Cc1cc(OCc2noc(=O)[nH]2)c(C)c(C)c1Oc1ccc(O)c(C(C)C)n1 [Example 36, 3-({4-[(5-hydroxy-6-isopropylpyridin-2-yl)oxy]-2,3,5-trimethylphenoxy}methyl)-1,2,4-oxadiazol-5(4H)-one]	3 nM	C (2>(TRα/TRβ))
Cc1cc(OC(C)C(=O)O)c(C)c(C)c1Cc1ccc(O)c(C2CCCCC2)n1 (centres unmarked) [Example 15, 2-{4-[(6-cyclohexyl-5-hydroxypyridin-2-yl)methyl]-2,3,5-trimethylphenoxy}propanoic acid]	9 nM	B (2<(TRα/TRβ)<5)
Cc1cc(CCC(=O)O)c(C)c(C)c1Cc1ccc(O)c(C2CCCCC2)n1 [Example 26, 3-{4-[(6-cyclohexyl-5-hydroxypyridin-2-yl)methyl]-2,3,5-trimethylphenyl}propanoic acid]	6 nM	C (2>(TRα/TRβ))
Cc1cc(NC(=O)C(=O)O)c(C)c(C)c1Cc1ccc(O)c(C2CCCCC2)n1 [Example 20, ({4-[(6-cyclohexyl-5-hydroxypyridin-2-yl)methyl]-2,3,5-trimethylphenyl}amino)(oxo)acetic acid]	4 nM	C (2>(TRα/TRβ))
Cc1cc(OCC(=O)O)cc(C)c1Cc1ccc(O)c(C(C)C)n1 [Example 1, {4-[(5-hydroxy-6-isopropylpyridin-2-yl)methyl]-3,5-dimethylphenoxy}acetic acid]	3 nM	B (2<(TRα/TRβ)<5)
Cc1cc(OCc2noc(=O)[nH]2)c(F)c(C)c1Cc1ccc(O)c(C(C)C)n1 [Example 37, 3-({2-fluoro^-4-[(5-hydroxy-6-isopropylpyridin-2-yl)methyl]-3,5-dimethylphenoxy}methyl)-1,2,4-oxadiazol-5(4H)-one]	0.1 nM	B (2<(TRα/TRβ)<5)
Cc1cc(OCC(=O)O)c(Br)c(C)c1Cc1ccc(O)c(C2CCCCC2)n1 [Example 13, {2-bromo-4-[(6-cyclohexyl-5-hydroxypyridin-2-yl)methyl]-3,5-dimethylphenoxy}acetic acid]	0.3 nM	A (5<(TRα/TRβ))
Cc1cc(OCc2noc(=O)[nH]2)c(C)c(C)c1Cc1ccc(O)c(C2CCCCO2)n1 (centres unmarked) [Example 35, 3-[(4-{[5-hydroxy-6-(tetrahydro-2H-pyran-2-yl)pyridin-2-yl]methyl}-2,3,5-trimethylphenoxy)methyl]-1,2,4-oxadiazol-5(4H)-one]	9 nM	B (2<(TRα/TRβ)<5)
Cc1cc(OCC(=O)O)cc(C)c1Cc1ccc(O)c(C2CCCCC2)n1 [Example 2, {4-[(6-cyclohexyl-5-hydroxypyridin-2-yl)methyl]-3,5-dimethylphenoxy}acetic acid]	2 nM	B (2<(TRα/TRβ)<5)
Cc1cc(OCC(=O)O)cc(C)c1Cc1ccc(O)c(-c2ccc3ccccc3c2)n1 [Example 3, (4-{[5-hydroxy-6-(2-naphthyl)pyridin-2-yl]methyl}-3,5-dimethylphenoxy)acetic acid]	20 nM	A (5<(TRα/TRβ))
Cc1cc(OCC(=O)O)c(C)c(C)c1Oc1ccc(O)c(C(C)C)n1 [Example 9, {4-[(5-hydroxy-6-isopropylpyridin-2-yl)oxy]-2,3,5-trimethylphenoxy}acetic acid]	7 nM	C (2>(TRα/TRβ))
Cc1cc(NC(=O)CC(=O)O)c(Cl)c(C)c1Cc1ccc(O)c(C2CCCCC2)n1 [Example 54]	6 nM	A (5<(TRα/TRβ))
